Test results as given in US12180187B2, “1-phenyl-5-azinylpyrazolyl-3-oxyalkyl acids and their use for controlling unwanted plant growth” (BAYER AKTIENGESELLSCHAFT, priority 2019, dated 2024).

What was measured:
ALOMY [1] = assay: Pre-emergence action against ALOMY, 1280 g/ha; format: in vivo, Alopecurus myosuroides; settings: visual scoring after about 3 weeks vs untreated controls, 100% = plants have died, 0% = like control plants
In short: (§1)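 Compound applied as WP or EC in aqueous spray (0.5% additive, 600 L/ha) to the surface of sandy loam covering freshly sown seeds. After about 3 weeks under good greenhouse conditions, damage is given as visual percentage, 100% meaning plant death.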

DIGSA [2] = assay: Pre-emergence action against DIGSA, 1280 g/ha; format: in vivo, Digitaria sanguinalis; settings: visual scoring after about 3 weeks vs untreated controls, 100% = plants have died, 0% = like control plants
In short: as §1

ECHCG [3] = assay: Pre-emergence action against ECHCG, 1280 g/ha; format: in vivo, Echinochloa crus-galli; settings: visual scoring after about 3 weeks vs untreated controls, 100% = plants have died, 0% = like control plants
In short: as §1

LOLRI [4] = assay: Pre-emergence action against LOLRI, 1280 g/ha; format: in vivo, Lolium rigidum; settings: visual scoring after about 3 weeks vs untreated controls, 100% = plants have died, 0% = like control plants
In short: as §1

POAAN [5] = assay: Pre-emergence action against POAAN, 1280 g/ha; format: in vivo, Poa annua; settings: visual scoring after about 3 weeks vs untreated controls, 100% = plants have died, 0% = like control plants
In short: as §1

SETVI [6] = assay: Pre-emergence action against SETVI, 1280 g/ha; format: in vivo, Setaria viridis; settings: visual scoring after about 3 weeks vs untreated controls, 100% = plants have died, 0% = like control plants
In short: as §1

ABUTH [7] = assay: Pre-emergence action against ABUTH, 1280 g/ha; format: in vivo, Abutilon theophrasti; settings: scored visually after about 3 weeks vs untreated controls (100% = plants have died)
In short: as §1

AMARE [8] = assay: Pre-emergence action against AMARE, 1280 g/ha; format: in vivo, Amaranthus retroflexus; settings: scored visually after about 3 weeks vs untreated controls (100% = plants have died)
In short: as §1

KCHSC [9] = assay: Pre-emergence action against KCHSC, 1280 g/ha; format: in vivo, Bassia scoparia; settings: scored visually after about 3 weeks vs untreated controls (100% = plants have died)
In short: as §1

MATIN [10] = assay: Pre-emergence action against MATIN, 1280 g/ha; format: in vivo, Tripleurospermum inodorum (Matricaria inodora); settings: scored visually after about 3 weeks vs untreated controls (100% = plants have died)
In short: as §1

STEME [11] = assay: Pre-emergence action against STEME, 1280 g/ha; format: in vivo, Stellaria media; settings: scored visually after about 3 weeks vs untreated controls (100% = plants have died)
In short: as §1

VERPE [12] = assay: Pre-emergence action against VERPE, 1280 g/ha; format: in vivo, Veronica persica; settings: scored visually after about 3 weeks vs untreated controls (100% = plants have died)
In short: as §1

ALOMY [13] = assay: Pre-emergence action at 320 g/ha against ALOMY; format: in vivo, Alopecurus myosuroides; settings: scored visually after about 3 weeks vs untreated controls (100% = plants have died)
In short: (§2)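 Visual % scoring at about 3 weeks post-treatment against untreated pots (0% = like control, 100% = dead), greenhouse-grown. Compounds applied at 320 g/ha as aqueous WP/EC suspension or emulsion plus 0.5% additive, 600 l/ha water, onto covering soil of freshly sown pots before emergence.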

AVEFA = assay: Pre-emergence action at 320 g/ha against AVEFA; format: in vivo; settings: visual scoring after about 3 weeks vs untreated controls
In short: as §2

DIGSA [14] = assay: Pre-emergence action at 320 g/ha against DIGSA; format: in vivo, Digitaria sanguinalis; settings: visual scoring after about 3 weeks vs untreated controls
In short: as §2

ECHGC = assay: Pre-emergence action at 320 g/ha against ECHGC; format: in vivo, Echinochloa crus-galli; settings: visual scoring after about 3 weeks vs untreated controls
In short: as §2

LOLRI [15] = assay: Pre-emergence action at 320 g/ha against LOLRI; format: in vivo, Lolium rigidum; settings: visual scoring after about 3 weeks vs untreated controls
In short: as §2

SETVI [16] = assay: Pre-emergence action at 320 g/ha against SETVI; format: in vivo, Setaria viridis; settings: visual scoring after about 3 weeks vs untreated controls
In short: as §2

AMARE [17] = assay: Pre-emergence action at 320 g/ha against AMARE; format: in vivo, Amaranthus retroflexus; settings: visual scoring after about 3 weeks vs untreated controls
In short: as §2

MATIN [18] = assay: Pre-emergence action at 320 g/ha against MATIN; format: in vivo, Tripleurospermum inodorum (Matricaria inodora); settings: visual scoring after about 3 weeks vs untreated controls
In short: as §2

PHBPU = assay: Pre-emergence action at 320 g/ha against PHBPU; format: in vivo; settings: visual scoring after about 3 weeks vs untreated controls
From the text: b) Seeds of monocotyledonous and dicotyledonous weed plants and crop plants are placed in plastic or organic planting pots and covered with soil. The compounds of the invention, formulated in the form of wettable powders (WP) or as emulsion concentrates (EC), are then applied onto the surface of the covering soil as aqueous suspension or emulsion with addition of 0.5% additive at a water application rate of 600 l/ha (converted). After the treatment, the pots are placed in a greenhouse and kept under good growth conditions for the trial plants. After about 3 weeks, the effect of the preparations is scored visually in comparison with untreated controls as percentages. For example, 100% activity=the plants have died, 0% activity=like control plants. Tables 13 to 26 below show the effects of selected compounds of the general formula (I) on various harmful plants and at an application rate corresponding to 320 g/ha, which were obtained by the experimental procedure mentioned above.

POLCO = assay: Pre-emergence action at 320 g/ha against POLCO; format: in vivo, Fallopia convolvulus (Polygonum convolvulus); settings: visual scoring after about 3 weeks vs untreated controls
In short: as §2

VERPE [19] = assay: Pre-emergence action at 320 g/ha against VERPE; format: in vivo, Veronica persica; settings: visual scoring after about 3 weeks vs untreated controls
In short: as §2

VIOTR = assay: Pre-emergence action at 320 g/ha against VIOTR; format: in vivo, Viola tricolor; settings: dosage 320 g/ha
In short: as §2

ALOMY [20] = assay: Post-emergence action against ALOMY, 1.28 kg/ha; format: in vivo, Alopecurus myosuroides; settings: dosage 1280 g/ha, visual rating about 3 weeks after treatment vs untreated controls
In short: (§3)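 Activity scored visually roughly 3 weeks after treatment against untreated plants (0% = as control, 100% = dead). Plants grown in sandy loam in greenhouse, treated at one-leaf stage, 2–3 weeks post-sowing, with WP/EC spray containing 0.5% additive at 600 l/ha.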

DIGSA [21] = assay: Post-emergence action against DIGSA, 1.28 kg/ha; format: in vivo, Digitaria sanguinalis; settings: dosage 1280 g/ha, visual rating about 3 weeks after treatment vs untreated controls
In short: as §3

ECHCG [22] = assay: Post-emergence action against ECHCG, 1.28 kg/ha; format: in vivo, Echinochloa crus-galli; settings: dosage 1280 g/ha, visual rating about 3 weeks after treatment vs untreated controls
In short: as §3

LOLRI [23] = assay: Post-emergence action against LOLRI, 1.28 kg/ha; format: in vivo, Lolium rigidum; settings: dosage 1280 g/ha, visual rating about 3 weeks after treatment vs untreated controls
In short: as §3

POAAN [24] = assay: Post-emergence action against POAAN, 1.28 kg/ha; format: in vivo, Poa annua; settings: dosage 1280 g/ha, visual rating about 3 weeks after treatment vs untreated controls
In short: as §3

SETVI [25] = assay: Post-emergence action against SETVI, 1.28 kg/ha; format: in vivo, Setaria viridis; settings: dosage 1280 g/ha, visual rating about 3 weeks after treatment vs untreated controls
In short: as §3

ABUTH [26] = assay: Post-emergence action against ABUTH, 1.28 kg/ha; format: in vivo, Abutilon theophrasti; settings: dosage 1280 g/ha, visual rating about 3 weeks after treatment vs untreated controls (100% = plants died)
In short: as §3

AMARE [27] = assay: Post-emergence action against AMARE, 1.28 kg/ha; format: in vivo, Amaranthus retroflexus; settings: dosage 1280 g/ha, visual rating about 3 weeks after treatment vs untreated controls (100% = plants died)
In short: as §3

KCHSC [28] = assay: Post-emergence action against KCHSC, 1.28 kg/ha; format: in vivo, Bassia scoparia; settings: dosage 1280 g/ha, visual rating about 3 weeks after treatment vs untreated controls (100% = plants died)
In short: as §3

MATIN [29] = assay: Post-emergence action against MATIN, 1.28 kg/ha; format: in vivo, Tripleurospermum inodorum (Matricaria inodora); settings: dosage 1280 g/ha, visual rating about 3 weeks after treatment vs untreated controls (100% = plants died)
In short: as §3

STEME [30] = assay: Post-emergence action against STEME, 1.28 kg/ha; format: in vivo, Stellaria media; settings: dosage 1280 g/ha, visual rating about 3 weeks after treatment vs untreated controls (100% = plants died)
In short: as §3

VERPE [31] = assay: Post-emergence action against VERPE, 1.28 kg/ha; format: in vivo, Veronica persica; settings: dosage 1280 g/ha, visual rating about 3 weeks after treatment vs untreated controls (100% = plants died)
In short: as §3

## CSCCOC(=O)COc1nn(-c2ccccc2F)c(-c2ccc(F)nc2)c1Br [VII-124]
ALOMY [1]
  Pre-emergence action against ALOMY: 100%
DIGSA [2]
  Pre-emergence action against DIGSA: 100%
ECHCG [3]
  Pre-emergence action against ECHCG: 100%
LOLRI [4]
  Pre-emergence action against LOLRI: 100%
POAAN [5]
  Pre-emergence action against POAAN: 100%
SETVI [6]
  Pre-emergence action against SETVI: 100%
ABUTH [7]
  Pre-emergence action against ABUTH: 90%
AMARE [8]
  Pre-emergence action against AMARE: 100%
KCHSC [9]
  Pre-emergence action against KCHSC: 90%
MATIN [10]
  Pre-emergence action against MATIN: 100%
STEME [11]
  Pre-emergence action against STEME: 100%
VERPE [12]
  Pre-emergence action against VERPE: 100%
ALOMY [13]
  Pre-emergence action at 320 g/ha against ALOMY in %: 100%
AVEFA
  Pre-emergence action against AVEFA in %: 90%
DIGSA [14]
  Pre-emergence action against DIGSA in %: 100%
ECHGC
  Pre-emergence action against ECHGC in %: 100%
LOLRI [15]
  Pre-emergence action against LOLRI in %: 100%
SETVI [16]
  Pre-emergence action against SETVI in %: 100%
AMARE [17]
  Pre-emergence action against AMARE in %: 100%
MATIN [18]
  Pre-emergence action against MATIN in %: 100%
PHBPU
  Pre-emergence action against PHBPU in %: 90%
POLCO
  Pre-emergence action against POLCO in %: 100%
VERPE [19]
  Pre-emergence action against VERPE in %: 100%
VIOTR
  Pre-emergence action against VIOTR in %: 100%
ALOMY [20]
  Post-emergence action against ALOMY: 100%
DIGSA [21]
  Post-emergence action against DIGSA: 100%
ECHCG [22]
  Post-emergence action against ECHCG: 100%
LOLRI [23]
  Post-emergence action against LOLRI: 100%
POAAN [24]
  Post-emergence action against POAAN: 100%
SETVI [25]
  Post-emergence action against SETVI: 90%
ABUTH [26]
  Post-emergence action against ABUTH: 90%
AMARE [27]
  Post-emergence action against AMARE: 90%
KCHSC [28]
  Post-emergence action against KCHSC: 90%
MATIN [29]
  Post-emergence action against MATIN: 100%
STEME [30]
  Post-emergence action against STEME: 100%
VERPE [31]
  Post-emergence action against VERPE: 100%

## CCOC(=O)CN(C)S(=O)(=O)NC(=O)COc1nn(-c2ccccc2F)c(-c2cncc(F)c2)c1Br [Example X-041]
ALOMY [13]
  Pre-emergence action at 320 g/ha against ALOMY in %: 100%
AVEFA
  Pre-emergence action against AVEFA in %: 80%
ECHGC
  Pre-emergence action against ECHGC in %: 80%
LOLRI [15]
  Pre-emergence action against LOLRI in %: 90%
SETVI [16]
  Pre-emergence action against SETVI in %: 90%
AMARE [17]
  Pre-emergence action against AMARE in %: 90%
MATIN [18]
  Pre-emergence action against MATIN in %: 90%
PHBPU
  Pre-emergence action against PHBPU in %: 90%
POLCO
  Pre-emergence action against POLCO in %: 90%
VERPE [19]
  Pre-emergence action against VERPE in %: 100%
VIOTR
  Pre-emergence action against VIOTR in %: 100%
